In one data set the test system is cell-surface CrT protein. Briefly: Cell-surface CrT protein by biotin labeling, avidin isolation and Western blot (4B9). Format: cell-based, human. As to conditions: HL-1 cultures, 100 nmol/L DOX. As for the experimental part:
HL-1 cells expressing CrT protein were lysed in an ice-cold solution of 150 mmol/L NaCl; 1% Triton X-100; and 50 mmol/L Tris-HCl, pH 7.4, supplemented with protease (COMPLETE MINI protease inhibitors, ROCHE, Indianapolis, Ind.) and phosphatase inhibitors (5 mmol/L NaF; 1 mmol/L phenylmethylsulphonylfluoride; 2.5 mmol/L Na2P2O7; 50 mmol/L β-glycerol; and 1 mmol/L […], Sigma). Insoluble material was separated by centrifugation at 100,000×g for 30 min at 4° C. Solubilized protein (25 μg per lane) was mixed with Laemmli buffer containing 10% β-mercaptoethanol, separated by SDS-PAGE on a 7% gel for studies of the CrT, and then transferred to nitrocellulose membranes. […] The TATA box-binding protein band was used as a loading control and was detected using a mouse monoclonal antibody (ABCAM, Cambridge, Mass.). […] Protein abundance was quantitated by densitometry using the IMAGEJ application from NIH, and normalized to the signal obtained from CrT protein isolated from cells grown in normal culture media.
HL-1 cultures were grown in 75 cm^2 plates and transiently transfected as described for human CrT cDNA. […] Cell surface CrT protein fraction (biotinylated CrT) was then analyzed by Western blotting using an anti-CrT antibody as described above.
(A western blot detects proteins with antibodies after separation by electrophoresis.)

In the next data set the test system is RNCM. Briefly: LDH release cytotoxicity assay in RNCM. It counts as cell-based, rat. How it is done: Toxicity was assessed by quantifying the amount of lactate dehydrogenase (LDH) present in the culture media using PROMEGA's CYTOTOX96 NON-RADIOACTIVE ASSAY (PROMEGA, Madison, Wis.). Maximum cytotoxicity was determined by measuring the amount of LDH released in cells incubated with the kit's lysis buffer. The percentage of LDH released after DOX treatment was compared with that of controls.
A general note: Release of lactate dehydrogenase indicates damage to the cell membrane.

In data set [1] the test system is HL-1 cells. Briefly: Caspase 3/7 apoptosis assay in HL-1 cells. It counts as cell-based, murine. To be noted: HL-1, 100 nmol/L DOX, up to 48 hrs. How it is done: Apoptosis was measured using PROMEGA's CASPASE-GLO 3/7 ASSAY SYSTEM (PROMEGA). Briefly, attached cells in a single 24-well plate were washed 3 times with ice-cold PBS and resuspended in 500 μl of 1% TRITON-X100; 10% glycerol; 2 mmol/L EDTA; 137 mmol/L NaCl; and 20 mmol/L Tris, pH 8.0. A mixture of 25 μL of lysate and 25 μL of caspase 3/7-assay reagent was prepared, and sequential luminescent readings were taken every 15 min for 4 hrs. Peak signal readings were normalized to protein content and plotted.

In data set [2] the test system is HL-1 cells. Briefly: Quantification of Cr and high-energy phosphates in HL-1 extracts by LC-MS/MS. To be noted: HL-1, 100 nmol/L DOX, 24 hrs.

The source of these data is US20120315654A1, “COMPOSITIONS AND METHODS FOR DETECTING CARDIOTOXICITY” (DUKE UNIVERSITY, priority 2011, published 2012).

Regarding `COc1cccc2c1C(=O)c1c(O)c3c(c(O)c1C2=O)C[C@@](O)(C(=O)CO)C[C@@H]3O[C@H]1C[C@H](N)[C@H](O)[C@H](C)O1` [DOX, Doxorubicin], the “Amount of CrT at the cell surface” value with cell-surface CrT protein was “decreased”. In addition, the LDH release entry in the data set on RNCM (50 nmol/L DOX, through 48 hrs) is recorded as “not significantly elevated”. Besides, in the data set with RNCM (100 nmol/L DOX, 36 hrs), the “Increase in LDH release compared with control” value stood at 7%. Further, the “Apoptosis (caspase 3/7 activation)” value with HL-1 cells [1] is listed as “No increase”. In the data set with HL-1 cells [2], this compound gave an ADP of 0.50 ± 0.07 μmols/mg prot, an AMP of 0.26 ± 0.08 μmols/mg prot, an ATP of 0.60 ± 0.15 μmols/mg prot and a Cr of 23.01 ± 7.92 μmols/mg prot. The same compound displayed a PCr in the data set with HL-1 cells [2] of 5.94 ± 0.12 μmols/mg prot.
